Earlier results on one compound are cited in patent US8412321B2, “Method of identifying strategies for treatment or prevention of ventricular fibrillation and ventricular tachycardia” (Cornell Research Foundation, Inc., priority 2004, dated 2013).

SMILES strings stand for the structures.

The series has as its system arterially perfused canine ventricle.

Turning to `COc1ccc(CCN(C)CCCC(C#N)(c2ccc(OC)c(OC)c2)C(C)C)cc1OC` (stereo not drawn) [verapamil], the “slope of the APD restitution relation” value (after exposure to verapamil, FIG. 14A) is “reduction in the slope of the APD restitution relation”. Besides, the “magnitude of APD alternans (AM)” value (pacing at different basic cycle lengths, FIG. 14B) is given as “reduction in the magnitude of APD alternans”. Moreover, under “verapamil added after 35 min of VF, FIG. 14C”, the “composite FFT of MAP recordings during VF” value is reported as “converted the broad FFT spectra during VF to a single frequency”.
